We go through one substance from patent publication US20240138838A1, “SURFACE-MODIFIED ANASTOMOSIS DEVICE” (Washington University, priority 2022, published 2024).

The subject of this experiment is HUVECs. As to the kind of experiment: 2D angiogenesis assay, HUVECs on the hydrogel surface. Type of experiment: cell-based, human. The protocol:
Angiogenesis and vascularization assays were adopted to optimize hydrogels with RGD. For the two-dimensional (2D) culture of HUVECs, cells (4×10^4/well in a 96-well plate) were plated on the surface of HA hydrogels (40 μL; HA-SH: 4 mg/mL and PEGDA: 5 mg/mL) with various concentrations of RGD (0, 0.01, 0.1, and 1 mM). Matrigel was used as a positive control. After 24 h, HUVECs were imaged after LIVE/DEAD staining. As for the 3D cell culture, to avoid cell precipitation onto the surface of the plate, the plate was first coated with the hydrogels (40 μL hydrogel; HA-SH: 4 mg/mL, PEGDA: 2 mg/mL, F127-SS-DA: 4 mg/mL; RGD: 0, 0.10, 0.25, and 0.50 mM). Then, HUVECs and hASCs mixed with hydrogel precursor solutions (0.75×10^6/mL hydrogel; 40 μL hydrogel) were plated on top of hydrogels. In addition, both cells were cultured inside hydrogels with F127-SS-DA or F127-DA (40 μL; HA-SH: 4 mg/mL, PEGDA: 2 mg/mL, RGD: 0.1 mM; F127-DA or F127-SS-DA: 2, 4, 8, 10, 20, and 50 mg/mL). The cells were imaged after immunostaining for F-actin. […]
Cell viability was examined with a LIVE/DEAD staining kit and then the images were captured by a Zeiss LSM 880 laser scanning confocal microscope. The cell morphology was also evaluated by immunostaining with Alexa Fluor Phalloidin 568 or 488 for F-actin and 4′,6-diamidino-2-phenylindole dihydrochloride (DAPI, Molecular Probes) for cell nuclei.

RGD: the “endothelial cell layer on the hydrogel surface” value (RGD at 1 mM) is recorded as “supported the formation of a full layer of endothelial cells”. For the same substance, the endothelial cell adhesion result (RGD conjugated to a hyaluronic acid-based hydrogel, FIG. 18) is “improved endothelial cell adhesion in a dose-dependent manner”.
